Values joined by “and” are separate entries in the source; they are usually repeats but may differ in a detail not shown here. Equal values may be shown once. Read-outs that look alike come from different tables or passages of the source.
Experiments:
telomerase [1] = biological target: T1, telomerase (Homo sapiens, UniProt O14746); test: Telomerase extension after insertion of modified dNTP (percent of product terminated at each template position); format: biochemical; design: made in house; anti-FLAG immunopurification, eluted with 3xFLAG peptide; conditions: Mean
T1 sequence (O14746 whole entry): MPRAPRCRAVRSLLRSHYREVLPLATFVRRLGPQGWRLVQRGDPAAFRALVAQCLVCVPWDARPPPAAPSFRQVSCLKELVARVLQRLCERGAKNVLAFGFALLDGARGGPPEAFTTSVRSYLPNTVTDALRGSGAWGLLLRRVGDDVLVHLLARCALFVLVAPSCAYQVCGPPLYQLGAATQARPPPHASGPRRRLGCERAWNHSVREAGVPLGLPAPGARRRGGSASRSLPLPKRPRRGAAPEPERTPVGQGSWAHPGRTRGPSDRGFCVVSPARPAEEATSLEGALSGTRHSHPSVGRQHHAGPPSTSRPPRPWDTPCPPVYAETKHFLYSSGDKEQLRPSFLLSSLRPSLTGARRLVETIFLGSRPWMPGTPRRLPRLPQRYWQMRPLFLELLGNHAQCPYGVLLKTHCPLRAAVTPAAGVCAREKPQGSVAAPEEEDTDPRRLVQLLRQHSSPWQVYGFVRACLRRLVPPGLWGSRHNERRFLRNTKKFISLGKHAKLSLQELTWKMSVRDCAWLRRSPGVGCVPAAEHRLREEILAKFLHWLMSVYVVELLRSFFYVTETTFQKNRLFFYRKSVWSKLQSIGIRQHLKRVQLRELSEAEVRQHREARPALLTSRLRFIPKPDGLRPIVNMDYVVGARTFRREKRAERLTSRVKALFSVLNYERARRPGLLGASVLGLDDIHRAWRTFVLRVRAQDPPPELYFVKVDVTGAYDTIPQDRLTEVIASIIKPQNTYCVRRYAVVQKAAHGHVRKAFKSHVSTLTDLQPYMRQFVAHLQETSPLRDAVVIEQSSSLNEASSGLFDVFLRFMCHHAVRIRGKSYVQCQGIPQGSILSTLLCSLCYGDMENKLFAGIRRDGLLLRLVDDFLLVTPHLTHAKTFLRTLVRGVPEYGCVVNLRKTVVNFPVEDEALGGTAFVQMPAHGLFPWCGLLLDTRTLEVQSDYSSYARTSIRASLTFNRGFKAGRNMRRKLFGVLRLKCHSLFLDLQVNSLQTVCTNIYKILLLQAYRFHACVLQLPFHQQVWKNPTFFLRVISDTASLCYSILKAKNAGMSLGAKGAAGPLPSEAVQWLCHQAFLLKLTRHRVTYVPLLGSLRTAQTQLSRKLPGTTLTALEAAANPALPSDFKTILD
Procedure: Direct telomerase assays were conducted with 5 nM ^32P-end labeled primer a and d Primer 3 (AGGGTT)3, b Primer 1 (TTAGGG)3, or c Primer 2 […]. […] Products were separated on denaturing gels. Letters on the y-axis of the graph indicate the template base; P indicates unextended 18-mer primer. Graphs represent percent of product terminated at each template position as a function of total products. Images are representative of, and data are the mean ± s.d. from, three independent experiments. Source data are provided as a Source Date file.
The reactions were started by the addition of 3 μl of immunopurified telomerase eluent, incubated at 37 °C for 1 h, then terminated with 2 μl of […] and heat inactivated at 65 °C for 20 min. An equal volume of loading buffer (94% formamide, 0.1× TBE, 0.1% bromophenol blue, 0.1% xylene cyanol) was added to the reaction eluent. The samples were heat denatured for 10 min at 100 °C and loaded onto a 14% denaturing acrylamide gel (7 M urea, 1× TBE) and electrophoresed for 90 min at constant 38 W. Samples were imaged using a Typhoon phosphorimager (GE Healthcare). Percent primer extension was calculated with ImageQuant TL 8.2 by measuring the intensity of each product band and dividing by the total radioactivity in the lane or total products, as indicated in the figure legends.

telomerase [2] = biological target: T1, telomerase; test: Telomerase repeat processivity IC50: modified dNTP titrated into reactions with all four natural dNTPs; format: biochemical; design: made in house; anti-FLAG immunopurification, eluted with 3xFLAG peptide
How it was run: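 Immunopurified human telomerase reactions with cellular-relevant levels of all four natural dNTPs plus modified dNTP titrated 0–10,000 μM, 1 h at 37 °C; products resolved on denaturing gels and phosphorimaged. Repeat processivity R1/2 = −ln(2)/slope of ln(100−%LB) vs repeat number; IC50 is concentration halving bulk repeat processivity.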

[3] = dose-response fit of processivity R 1/2, individual replicates
[4] = dose-response fit of processivity R 1/2 vs log(concentration), individual replicates

## Nc1ncnc2c1ncn2C1CC(O)C(COP(=O)(O)OP(=O)(O)OP(=O)(O)O)O1 (stereo not drawn) [dATP]
Telomerase [1]; Fig 4a, Primer 3, 50 μM each dTTP, dGTP and dATP or 2-OH-dATP, terminated at rA3
  Percent of Total Product: 2.35%
Telomerase [1]; Fig 4a, Primer 3, 50 μM each dTTP, dGTP and dATP or 2-OH-dATP, terminated at rA4
  Percent of Total Product: 1.56%
Telomerase [1]; Fig 4a, Primer 3, 50 μM each dTTP, dGTP and dATP or 2-OH-dATP, terminated at rC1
  Percent of Total Product: 1.47%
Telomerase [1]; Fig 4a, Primer 3, 50 μM each dTTP, dGTP and dATP or 2-OH-dATP, terminated at rC2
  Percent of Total Product: 0.77%
Telomerase [1]; Fig 4a, Primer 3, 50 μM each dTTP, dGTP and dATP or 2-OH-dATP, terminated at rC6
  Percent of Total Product: 8.96%
Telomerase [1]; Fig 4a, Primer 3, 50 μM each dTTP, dGTP and dATP or 2-OH-dATP, terminated at rU5 (first)
  Percent of Total Product: 4.92%
Telomerase [1]; Fig 4a, Primer 3, 50 μM each dTTP, dGTP and dATP or 2-OH-dATP, terminated at rU5 (second, after translocation)
  Percent of Total Product: 0.73%

## Nc1nc2c(ncn2C2CC(O)C(COP(=O)(O)OP(=O)(O)OP(=O)(O)O)O2)c(=O)[nH]1 (stereo not drawn) [dGTP]
Telomerase [1]; Fig 4b, Primer 1 (TTAGGG)3, 50 μM each dATP, dTTP and dGTP or 6-thio-dGTP, terminated at rA3
  Percent of Total Product: 7.65%
Telomerase [1]; Fig 4b, Primer 1, 50 μM each dATP, dTTP and dGTP or 6-thio-dGTP, terminated at rA4
  Percent of Total Product: 5.26%
Telomerase [1]; Fig 4b, Primer 1, 50 μM each dATP, dTTP and dGTP or 6-thio-dGTP, terminated at rC1
  Percent of Total Product: 0.66%
Telomerase [1]; Fig 4b, Primer 1, 50 μM each dATP, dTTP and dGTP or 6-thio-dGTP, terminated at rC2
  Percent of Total Product: 0.40%
Telomerase [1]; Fig 4b, Primer 1, 50 μM each dATP, dTTP and dGTP or 6-thio-dGTP, terminated at rC6
  Percent of Total Product: 4.56%
Telomerase [1]; Fig 4b, Primer 1, 50 μM each dATP, dTTP and dGTP or 6-thio-dGTP, terminated at rU5
  Percent of Total Product: 0.95%
Telomerase [1]; Fig 4c, Primer 2, 50 μM each dATP, dTTP and dGTP or 6-thio-dGTP, terminated at rA3
  Percent of Total Product: 5.15%
Telomerase [1]; Fig 4c, Primer 2, 50 μM each dATP, dTTP and dGTP or 6-thio-dGTP, terminated at rA4
  Percent of Total Product: 4.76%
Telomerase [1]; Fig 4c, Primer 2, 50 μM each dATP, dTTP and dGTP or 6-thio-dGTP, terminated at rC1
  Percent of Total Product: 7.39%
Telomerase [1]; Fig 4c, Primer 2, 50 μM each dATP, dTTP and dGTP or 6-thio-dGTP, terminated at rC2
  Percent of Total Product: 1.97%
Telomerase [1]; Fig 4c, Primer 2, 50 μM each dATP, dTTP and dGTP or 6-thio-dGTP, terminated at rC6
  Percent of Total Product: 6.22%
Telomerase [1]; Fig 4c, Primer 2, 50 μM each dATP, dTTP and dGTP or 6-thio-dGTP, terminated at rU5
  Percent of Total Product: 1.19%
Telomerase [1]; Fig 4d, Primer 3 (AGGGTT)3, 50 μM each dATP, dTTP and dGTP or 6-thio-dGTP, terminated at rU5
  Percent of Total Product: 4.50%
Telomerase [1]; Fig 4d, Primer 3, 50 μM each dATP, dTTP and dGTP or 6-thio-dGTP, terminated at rA3
  Percent of Total Product: 2.21%
Telomerase [1]; Fig 4d, Primer 3, 50 μM each dATP, dTTP and dGTP or 6-thio-dGTP, terminated at rC1
  Percent of Total Product: 1.49%
Telomerase [1]; Fig 4d, Primer 3, 50 μM each dATP, dTTP and dGTP or 6-thio-dGTP, terminated at rC2
  Percent of Total Product: 0.72%
Telomerase [1]; Fig 4d, Primer 3, 50 μM each dATP, dTTP and dGTP or 6-thio-dGTP, terminated at rC6
  Percent of Total Product: 8.67%

## O=c1[nH]cnc2c1ncn2C1CCC(COP(=O)(O)OP(=O)(O)OP(=O)(O)O)O1 (stereo not drawn) [ddITP]
Telomerase [2]; cellular relevant natural dNTPs, modified dNTP titrated 0 to 10,000 μM, based on repeat processivity, mean ± SD, read-out: Telomerase processivity IC50
  IC50: 61 ± 23 µM
Telomerase [2]; ddITP 31μM
  YIntercept (line fit of ln(100-%LB) vs # telomere repeats): 3.68 and 3.90 and 3.32
Telomerase [2]; ddITP 31μM, telomere repeat 1
  ln(100-%LB): 3.63 and 3.77 and 3.47
Telomerase [2]; ddITP 31μM, telomere repeat 2
  ln(100-%LB): 2.96 and 3.17 and 2.59
Telomerase [2]; ddITP 31μM, telomere repeat 3
  ln(100-%LB): 2.31 and 2.52 and 1.69
Telomerase [2]; ddITP 31μM, telomere repeat 4
  ln(100-%LB): 1.98 and 2.18 and 1.18
Telomerase [2]; ddITP 62μM
  YIntercept (line fit of ln(100-%LB) vs # telomere repeats): 4.03 and 4.15
Telomerase [2]; ddITP 62μM, telomere repeat 1
  ln(100-%LB): 3.64 and 3.75
Telomerase [2]; ddITP 62μM, telomere repeat 2
  ln(100-%LB): 2.81 and 2.79
Telomerase [2]; ddITP 62μM, telomere repeat 3
  ln(100-%LB): 1.96 and 1.84
Telomerase [2]; ddITP 62μM, telomere repeat 4
  ln(100-%LB): 1.44 and 1.17
Telomerase [2]; ddITP 62μM, telomere repeat 5
  ln(100-%LB): 0.94 and 0.56
Telomerase [2]; ddITP 250μM
  YIntercept (line fit of ln(100-%LB) vs # telomere repeats): 4.62 and 3.98
Telomerase [2]; ddITP 250μM, telomere repeat 1
  ln(100-%LB): 3.84 and 3.61
Telomerase [2]; ddITP 250μM, telomere repeat 2
  ln(100-%LB): 2.72 and 2.32
Telomerase [2]; ddITP 250μM, telomere repeat 3
  ln(100-%LB): 1.42 and 1.15
Telomerase [2]; ddITP 250μM, telomere repeat 4
  ln(100-%LB): 0.59 and 0.39
Telomerase [2]; ddITP 500μM
  Slope (line fit of ln(100-%LB) vs # telomere repeats): -0.95
  YIntercept (line fit of ln(100-%LB) vs # telomere repeats): 4.49
Telomerase [2]; ddITP 500μM, telomere repeat 1
  ln(100-%LB): 3.63 and 3.72
Telomerase [2]; ddITP 500μM, telomere repeat 2
  ln(100-%LB): 2.49 and 2.52
Telomerase [2]; ddITP 500μM, telomere repeat 3
  ln(100-%LB): 1.54 and 1.27
Telomerase [2]; ddITP 500μM, telomere repeat 4
  ln(100-%LB): 0.70 and 0.51
Telomerase [2]; ddITP 750μM
  YIntercept (line fit of ln(100-%LB) vs # telomere repeats): 4.67 and 4.49
Telomerase [2]; ddITP 750μM, telomere repeat 1
  ln(100-%LB): 3.72 and 3.79
Telomerase [2]; ddITP 750μM, telomere repeat 2
  ln(100-%LB): 2.57 and 2.74
Telomerase [2]; ddITP 750μM, telomere repeat 3
  ln(100-%LB): 1.55 and 1.58
Telomerase [2]; ddITP 750μM, telomere repeat 4
  ln(100-%LB): 0.67 and 0.79
Telomerase [2]; ddITP 1000μM
  YIntercept (line fit of ln(100-%LB) vs # telomere repeats): 4.63 and 4.20
Telomerase [2]; ddITP 1000μM, telomere repeat 1
  ln(100-%LB): 3.82 and 3.80
Telomerase [2]; ddITP 1000μM, telomere repeat 2
  ln(100-%LB): 3.01 and 3.04
Telomerase [2]; ddITP 1000μM, telomere repeat 3
  ln(100-%LB): 2.22 and 2.25
Telomerase [2]; ddITP 1000μM, telomere repeat 4
  ln(100-%LB): 1.56 and 1.76
Telomerase [2]; ddITP 1000μM, telomere repeat 5
  ln(100-%LB): 0.86 and 1.29
Telomerase [2]; ddITP 1500
  Slope (line fit of ln(100-%LB) vs # telomere repeats): -0.86
  YIntercept (line fit of ln(100-%LB) vs # telomere repeats): 4.62 and 4.48
Telomerase [2]; ddITP 1500, telomere repeat 1
  ln(100-%LB): 3.74 and 3.65
Telomerase [2]; ddITP 1500, telomere repeat 2
  ln(100-%LB): 2.90 and 2.79
Telomerase [2]; ddITP 1500, telomere repeat 3
  ln(100-%LB): 2.03 and 1.76
Telomerase [2]; ddITP 1500, telomere repeat 4
  ln(100-%LB): 1.25 and 1.21
Telomerase [2]; ddITP 1500, telomere repeat 5
  ln(100-%LB): 0.25 and 0.17
Telomerase [2]; [3]
  Best-fit values HillSlope: -1.214 and -1.087 and -1.6
  Best-fit values Span: 1.373 and 2.642 and 1.489
Telomerase [2]; dose-response fit of processivity R 1/2, log of concentration in μM, individual replicates
  Best-fit values LogIC50: 1.601 and 1.931 and 1.751
Telomerase [2]; [4]
  Best-fit values Bottom: 0.6806 and 0.1353 and 0.7679
  Best-fit values Top: 2.054 and 2.778 and 2.257
Telomerase [2]; log of processivity IC50 (concentration in μM), Supplementary Fig 8b, read-out: Log IC50 (converted)
  IC50: 63.1 µM
Telomerase [2]; modified dNTP concentration 31.25 μM, individual replicates n1-n3
  Processivity R 1/2: 1.52 and 2.08 and 1.82
Telomerase [2]; modified dNTP concentration 62.5 μM, individual replicates
  Processivity R 1/2: 1.13 and 1.82
Telomerase [2]; modified dNTP concentration 250 μM, individual replicates
  Processivity R 1/2: 0.87 and 0.71
Telomerase [2]; modified dNTP concentration 500 μM, individual replicates
  Processivity R 1/2: 0.8 and 0.73 (2×)
Telomerase [2]; modified dNTP concentration 750 μM, individual replicates
  Processivity R 1/2: 0.8 and 0.49
Telomerase [2]; modified dNTP concentration 1000 μM, individual replicates
  Processivity R 1/2: 0.69 (2×) and 0.47
Telomerase [2]; modified dNTP concentration 1500 μM, individual replicates
  Processivity R 1/2: 0.81 and 0.26 and 0.88
Telomerase [2]; modified dNTP concentration 2000 μM, individual replicates
  Processivity R 1/2: 0.45 and 0 and 0.81
Telomerase [2]; repeat processivity R 1/2, individual replicates N1-N3, read-out: Best-fit values IC50
  IC50: 39.9 µM and 85.3 µM and 56.4 µM
Telomerase [2]; repeat processivity R 1/2, mean of replicates, read-out: Mean IC50
  IC50: 60.5 µM

From article PMC7576608, “Mechanisms of telomerase inhibition by oxidized and therapeutic dNTPs” (Nature Communications, 2020)
